Experimental data reported in article PMC10999543, “Identification of kinase modulators as host-directed therapeutics against intracellular methicillin-resistant Staphylococcus aureus” (Frontiers in Cellular and Infection Microbiology, 2024).

Experiments:
[1] = tested on: intracellular MRSA in HeLa cells; test: Gentamicin protection assay with CFU count in MRSA-infected HeLa cells; assay type: cell-based, Staphylococcus aureus; details: for reduction of intracellular bacterial burden (CFU): validation of 17 hit compounds, Figure 2A; for reduction in bacterial burden (CFU): Figure 2B, n=17
Outline: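 Cells infected with MRSA (mean MOI 6.8 ± 4.6) for 1 hour at 37°C, extracellular bacteria killed with 30 µg/ml gentamicin for 15 min, then overnight with kinase inhibitor plus 5 µg/ml gentamicin; DMSO as negative control. Cells lysed in water with 0.05% SDS, lysates serially diluted and plated for CFU; triplicate per compound.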

[2] = tested on: intracellular MRSA in A549 cells; test: Gentamicin protection assay with CFU count in MRSA-infected A549 cells; assay type: cell-based, Staphylococcus aureus; details: 10 µM, n=7
Method: (§1) The cells were resuspended in cell culture medium without antibiotics, seeded with 10,000 cells/well into Costar flat-bottom 96-well plates (Corning, Amsterdam, the Netherlands), and were incubated overnight at 37°C/5% CO2. The next day, the bacteria were centrifuged at ≥1800 g for 15 min and resuspended in cold PBS + 5 mM ethylenediaminetetraacetic acid (EDTA). The number of CFUs present in the bacterial suspension was estimated from the optical density at 600 nm (OD600) by assuming 8x10^8 CFUs to be present in a bacterial suspension with OD600 = 1, based on prior titrations. The bacterial suspension was diluted in cell culture medium without antibiotics and added to the cells. Accuracy of the multiplicity of infection (MOI) was validated by plating serial dilutions of the MRSA inoculums on Difco TS agar plates (BD Biosciences). The calculated mean MOI throughout all experiments was 6.8 ± 4.6 (mean ± SD). Infected cells were centrifuged for 3 min at 150 g and incubated for 1 hour at 37°C/5% CO2. Next, the cells were incubated with fresh cell culture medium supplemented with 30 µg/ml gentamicin sulphate (Lonza BioWhittaker, Basel, Switzerland) for 15 min at 37°C/5% CO2 to kill residual extracellular bacteria. […]

[3] = tested on: intracellular MRSA in MCF7 cells; test: Gentamicin protection assay with CFU count in MRSA-infected MCF7 cells; assay type: cell-based, Staphylococcus aureus; details: 10 µM, n=7
Method: The cells were resuspended in cell culture medium without antibiotics, seeded with 10,000 cells/well into Costar flat-bottom 96-well plates (Corning, Amsterdam, the Netherlands), and were incubated overnight at 37°C/5% CO2. The next day, the bacteria were centrifuged at ≥1800 g for 15 min and resuspended in cold PBS + 5 mM ethylenediaminetetraacetic acid (EDTA). The number of CFUs present in the bacterial suspension was estimated from the optical density at 600 nm (OD600) by assuming 8x10^8 CFUs to be present in a bacterial suspension with OD600 = 1, based on prior titrations. The bacterial suspension was diluted in cell culture medium without antibiotics and added to the cells. Accuracy of the multiplicity of infection (MOI) was validated by plating serial dilutions of the MRSA inoculums on Difco TS agar plates (BD Biosciences). The calculated mean MOI throughout all experiments was 6.8 ± 4.6 (mean ± SD). Infected cells were centrifuged for 3 min at 150 g and incubated for 1 hour at 37°C/5% CO2. Next, the cells were incubated with fresh cell culture medium supplemented with 30 µg/ml gentamicin sulphate (Lonza BioWhittaker, Basel, Switzerland) for 15 min at 37°C/5% CO2 to kill residual extracellular bacteria. Infected cells were incubated overnight at 37°C/5% CO2 in cell culture medium in the presence of kinase inhibitors and 5 µg/ml gentamicin sulphate-containing medium to prevent the growth of extracellular bacteria. The solvent of the compounds, DMSO, was used at equal % v/v as a negative control. For the screen, each compound was tested in triplicate, on separate cell culture plates, resulting in triplicate values for each kinase inhibitor.
Infected cells were lysed in sterile water + 0.05% UltraPure SDS solution (Invitrogen, ThermoFisher Scientific) to release intracellular bacteria. Bacterial suspensions and lysates of cells infected with MRSA were 5-fold serially diluted and 10-μl drops were plated on square TS agar plates. The plates were left to dry and incubated overnight at 37°C/5% CO2.

HeLa cells = assay type: cell-based, human; details: for cytotoxicity / cell viability by LDH-release: 30 µM
Method: Before harvesting or lysing the cells of the intracellular infection assays, the supernatant from the cells was collected to quantify LDH release by the cells using the LDH cytotoxicity detection kit (Roche, Merck, Darmstadt, Germany) according to the manufacturer’s instructions. Triton X-100 results in maximum LDH release by permeabilizing the cells and was used as positive control. Quantification was performed with the EnVision plate reader.

[4] = tested on: intracellular MRSA in PMA-differentiated THP-1 cells; test: Gentamicin protection assay with CFU count in MRSA-infected PMA-differentiated THP-1 cells; assay type: cell-based, Staphylococcus aureus; details: 10 µM, n=6
Method: as §1

AMPK [5] = test: Phosphorylation of AMPK at Thr172 by western blot; assay type: cell-based, human; details: MRSA-infected HeLa cells
Method: HeLa cells were seeded with 100,000 cells/well in 24-wells plates. In short, the cells were lysed in EBSB buffer (10% v/v glycerol, 3% SDS, 100 mM Tris-HCl, pH 6.8) supplemented with one tablet of cOmplete EDTA-free protease inhibitor cocktail (Sigma-Aldrich) and proteins were denaturated at 95°C for 5 min. Protein concentrations were determined using a Pierce™ BCA protein assay kit (Thermo Fisher Scientific). Samples were diluted in Laemmli sample buffer and loaded on a 15-well 4–20% Mini-PROTEAN® TGX™ Precast Protein Gel for electrophoresis (both from Bio-Rad, Hercules, CA, USA). […] Membranes were blocked for 1h in PBS supplemented with 5% w/v non-fat dry milk. Next, the membranes were cut and each protein was separately stained with primary antibodies against actin and LC3B in PBS supplemented with 5% w/v non-fat dry milk, or against AMPKα and AMPKα-pThr172 in PBS supplemented with 5% BSA (antibodies listed in Supplementary Table S1 ). Membranes were stained with secondary antibodies in PBS supplemented with 5% w/v non-fat dry milk. After each staining, membranes were washed four times in PBS + 0.1% Tween20. Prior to revelation, the membranes were incubated for 10 min in enhanced chemiluminescence (ECL) Prime Western Blotting System reagent (GE Healthcare, Hoevelaken, The Netherlands). […] Protein bands were quantified using Fiji software ([Schindelin et al., 2012]).

AMPK [6] = tested on: AMPK; parameters: method as in Elkins et al., 2016; details: ref Elkins et al., 2016; cited from earlier work
planktonic MRSA cultures = test: Bacterial growth assay in cell-free planktonic MRSA cultures (OD600); assay type: cell-based, Staphylococcus aureus; details: Supplementary Figure S5
Method: […] The absorbance was measured using an EnVision plate reader (PerkinElmer). The plates were incubated at 37°C overnight and the absorbance was measured again the next day. Real-time measurement of bioluminescence by the MRSA-lux strain was performed in a white flat-bottom 96-wells plate using a SpectraMax i3x plate reader and an integration time set at 9000 ms.

AMPK [7] = test: Phosphorylation of ACC1 at Ser80 by flow cytometry (readout for AMPK activity); assay type: cell-based, human; details: MRSA-infected HeLa cells
Method: To determine the expression of the HER kinase family, cells were harvested using PBS + 5 mM EDTA and fixed in 1% paraformaldehyde for 20 min at RT. To determine phosphorylation of ACC1 at Ser80, cells were harvested by incubation in pre-warmed trypsin-EDTA, which was neutralized after 5 min with an equal volume of FBS, and fixed in 4% ultra-pure formaldehyde (Bio Trend, Cologne, Germany) for 20 min at RT. For intracellular staining, the cells were permeabilized in ice-cold methanol for 20 min. Subsequently, the cells were blocked in PBS + 0.5% bovine serum albumin + 0.005% NaN3 (both from Sigma-Aldrich; FACS buffer) + 5% human serum for 5 min. The cells were labelled with primary and secondary antibodies (listed in Supplementary Table S1 ) in FACS buffer. Samples were measured on the FACSLyric and analysed using FlowJo 10 (FlowJo LCC, Ashland, OR, USA).

EGFR = tested on: EGFR; parameters: method as in Elkins et al., 2016; details: PKIS1, Caliper assay, ref Elkins et al., 2016; cited from earlier work
HER4 = tested on: HER4; parameters: method as in Elkins et al., 2016; details: PKIS1, Caliper assay, ref Elkins et al., 2016; cited from earlier work

Structure (SMILES)	reduction of intracellular bacterial burden (CFU) ([1]; 10 µM) [%]	reduction in bacterial burden (CFU) ([1]; HeLa cells, 10 µM) [%]	lowest concentration acting against intracellular MRSA (titration) ([1]; MRSA-infected HeLa cells) [nM]	activity on bacterial burden (CFU) [2]	reduction in bacterial burden (CFU) [3]	cytotoxicity / cell viability by LDH-release (HeLa cells; MRSA-infected HeLa cells)	effect on CFU counts [4]	further results
CC(C)c1nc(-c2cccc(NS(=O)(=O)c3c(F)cccc3F)c2F)c(-c2ccnc(Nc3ccc(N4CCOCC4)nc3)n2)s1 [GSK2008607A]	56	72	10	not active	reductions in CFU counts	became cytotoxic	reductions in CFU counts	–
COc1ccc2[nH]c3c4[nH]c5ccc(OC)cc5c4c4c(c3c2c1)C(=O)NC4=O [GW296115X]	67	70	–	–	75%	limited cytotoxicity	–	bacterial killing when bafilomycin A1 is added ([1]; HeLa cells, combined with bafilomycin A1 (100 nM), Figure 5H): reverted; reduction of the intracellular bacterial burden, maximal ([1]; MRSA-infected HeLa cells, titration): up to 80%; Emax ([1]; Staphylococcus aureus, MRSA, HeLa): -80%; IC50 ([1]; Staphylococcus aureus, MRSA, HeLa, read-out: IC50 for reduction of intracellular bacterial burden): 159 nM; AMPK phosphorylation at Thr172 (AMPK [5]): significantly increased AMPK phosphorylation at Thr172; action on AMPK in a biochemical assay (AMPK [6]): AMPK inhibitor; direct antibiotic effects against MRSA (planktonic MRSA cultures; planktonic cultures): not the case; ACC1 phosphorylation at Ser80 (AMPK [7]): increased ACC1 phosphorylation; cell viability of MRSA-infected cells (HeLa cells; HeLa cells, Figure 5K): able to fully restore the loss in cell viability; cell viability of MRSA-infected cells (LDH-release) (HeLa cells; MRSA-infected HeLa cells, 10 µM, Figure 2G): rescued the loss of viability; host cell viability when bafilomycin A1 is added (HeLa cells; MRSA-infected HeLa cells, combined with bafilomycin A1 (100 nM), Figure 5I): reverted
O=S(=O)(CCNCc1ccc(-c2ccc3ncnc(Nc4ccc(OCc5cccc(F)c5)c(Cl)c4)c3c2)o1)c1ccccc1 [GW633459A]	59	50	10	not active	reductions in CFU counts	only marginally affected	reductions in CFU counts	CFU (% of DMSO) at 10 µM ([1]; 10 µM, MRSA-infected HeLa cells): 41.2 % of DMSO; effect on planktonic MRSA growth (direct antibiotic effect) (planktonic MRSA cultures; up to 100 µM concentration): not observe any direct antibacterial effects; % inhibition at 1 µM EGFR (EGFR): 83%; % inhibition at 1 µM HER4 (HER4): 89%
